These results are taken from patent US4914187A, “Ester derivatives of antibiotic L 17046” (Gruppo Lepetit S.p.A, priority 1989, dated 1990).

≈ marks a conversion by molar mass, not a printed value.

Broadly, the MIC is the lowest concentration found to suppress growth. In general, pKa refers to the pH at which an ionisable group is half protonated.

Data set [1] deals with S. aureus TOUR. As to the kind of experiment: agar-dilution MIC test. In kind it is cell-based. The text has this:
Isosensitest broth (Oxoid) and Todd-Hewitt broth (Difco) are used for growing staphylococci and streptococci, respectively. […]

Data set [2] can be described thus: pKa by titration. It counts as physicochemical. The note with it: methylcellulose ®/water 4:1 (v/v), excess 0.01 M hydrogen chloride, titrated with 0.01 M NaOH. Here is the method:
^(c) the samples are dissolved in methylcellulose ®/water 4:1
(v/v), an excess of 0.01 M hydrogen chloride in the same mixture is added
thereto and the resulting solution is titrated with 0.01 M NaOH in the […]

For data set [3], the system named is E. coli SKF 12140. Put plainly: agar-dilution MIC test. It counts as cell-based.
For data set [4], the system named is S. pyogenes C 203 SKF 13400. Put plainly: agar-dilution MIC test. It counts as cell-based. Here is the method:
(§1) Isosensitest broth (Oxoid) and Todd-Hewitt broth (Difco) are used for growing staphylococci and streptococci, respectively. Broth cultures are diluted so that the final inoculum is about 10^4 colony forming units/ml (CFU/ml).

In data set [5] the test system is S. pneumoniae UC 41. As to the kind of experiment: agar-dilution MIC test. It counts as cell-based. As to the method:
as §1

In data set [6] the test system is S. epidermidis ATCC 12228. Put plainly: agar-dilution MIC test. It counts as cell-based. As to the method:
as §1

In data set [7] the test system is S. aureus ATCC 6538. As to the kind of experiment: agar-dilution MIC test. It counts as cell-based. The note with it: 18-24 h at 37° C. Here is the method: as §1
For data set [8], the system named is S. faecalis ATCC 7080. As to the kind of experiment: agar-dilution MIC test. It counts as cell-based. Here is the method:
as §1

[9] abbreviates: S. aureus TOUR + 30% bovine serum.

Regarding `COC(=O)C1NC(=O)C2NC(=O)C(NC(=O)C3NC(=O)C4NC(=O)C(Cc5ccc(c(Cl)c5)Oc5cc3cc(c5O)Oc3ccc(cc3Cl)C2O[C@@H]2O[C@H](CO)[C@@H](O)[C@H](O)[C@H]2NC(C)=O)NC(=O)C(N)c2ccc(O)c(c2)Oc2cc(O)cc4c2)c2ccc(O)c(c2)-c2c(O)cc(O)cc21.Cl` (some centres unmarked) [Example 1, antibiotic L 17046 methyl ester, hydrochloride], the MIC turned out to be 0.125 µg/mL in data set [1] (S. aureus TOUR (10^3 CFU/ml)); 0.5 µg/mL in data set [1] (S. aureus TOUR (10^6 CFU/ml)); 0.25 µg/mL in data set [1] (setting [9]); 128 µg/mL in data set [3]; 0.5 µg/mL in data set [4]; 0.5 µg/mL in data set [5]. Further, the minimal inhibitory concentration (MIC) in data set [6] is 0.016 µg/mL; in data set [7], 0.125 µg/mL; in data set [8], 0.5 µg/mL. Also, the pKa in data set [2] is 6.70.
As to `CCOC(=O)C1NC(=O)C2NC(=O)C(NC(=O)C3NC(=O)C4NC(=O)C(Cc5ccc(c(Cl)c5)Oc5cc3cc(c5O)Oc3ccc(cc3Cl)C2O[C@@H]2O[C@H](CO)[C@@H](O)[C@H](O)[C@H]2NC(C)=O)NC(=O)C(N)c2ccc(O)c(c2)Oc2cc(O)cc4c2)c2ccc(O)c(c2)-c2c(O)cc(O)cc21.Cl` (some centres unmarked) [Example 2, antibiotic L 17046 ethyl ester, hydrochloride], the MIC in data set [1] (S. aureus TOUR (10^3 CFU/ml)) came out at 0.25 µg/mL; in data set [1] (S. aureus TOUR (10^6 CFU/ml)) it was 0.5 µg/mL; in data set [1] (setting [9]), 0.5 µg/mL; in data set [3] it was 128 µg/mL; in data set [4], 0.5 µg/mL; in data set [5] it was 0.5 µg/mL. Moreover, the minimal inhibitory concentration (MIC) came out at 0.016 µg/mL in data set [6], 0.25 µg/mL in data set [7] and 0.5 µg/mL in data set [8]. The same compound came in with a pKa in data set [2] of 6.68.
For `CCCCOC(=O)C1NC(=O)C2NC(=O)C(NC(=O)C3NC(=O)C4NC(=O)C(Cc5ccc(c(Cl)c5)Oc5cc3cc(c5O)Oc3ccc(cc3Cl)C2O[C@@H]2O[C@H](CO)[C@@H](O)[C@H](O)[C@H]2NC(C)=O)NC(=O)C(N)c2ccc(O)c(c2)Oc2cc(O)cc4c2)c2ccc(O)c(c2)-c2c(O)cc(O)cc21.Cl` (some centres unmarked) [Example 3, antibiotic L 17046 n-butyl ester, hydrochloride], the MIC in data set [1] (S. aureus TOUR (10^3 CFU/ml)) amounted to 0.125 µg/mL; in data set [1] (S. aureus TOUR (10^6 CFU/ml)) it was 0.25 µg/mL; in data set [1] (setting [9]), 0.5 µg/mL; in data set [3], 128 µg/mL; in data set [4], 0.25 µg/mL; in data set [5], 0.5 µg/mL. Besides, the MIC in data set [6] is 0.016 µg/mL; in data set [7], 0.25 µg/mL; in data set [8], 0.5 µg/mL. The compound also yielded a pKa in data set [2] of 6.65.
With `CC(=O)N[C@H]1[C@H](OC2c3ccc(c(Cl)c3)Oc3cc4cc(c3O)Oc3ccc(cc3Cl)CC3NC(=O)C(N)c5ccc(O)c(c5)Oc5cc(O)cc(c5)C(NC3=O)C(=O)NC4C(=O)NC3C(=O)NC2C(=O)NC(C(=O)OCCCl)c2cc(O)cc(O)c2-c2cc3ccc2O)O[C@H](CO)[C@@H](O)[C@@H]1O.Cl` (some centres unmarked) [Example 4, antibiotic L 17046 2-chloroethyl ester, hydrochloride], the MIC in data set [1] (S. aureus TOUR (10^3 CFU/ml)) is 0.25 µg/mL; in data set [1] (S. aureus TOUR (10^6 CFU/ml)), 0.5 µg/mL; in data set [1] (setting [9]), 0.5 µg/mL; in data set [3], 128 µg/mL; in data set [4], 0.25 µg/mL; in data set [5] it was 0.5 µg/mL. Moreover, the results for the minimum inhibitory concentration (MIC) in data set [6], in data set [7] and in data set [8] were 0.064 µg/mL, 0.25 µg/mL and 0.5 µg/mL, respectively. Besides, the pKa in data set [2] stood at 6.67.
As to `CC(=O)N[C@H]1[C@H](OC2c3ccc(c(Cl)c3)Oc3cc4cc(c3O)Oc3ccc(cc3Cl)CC3NC(=O)C(N)c5ccc(O)c(c5)Oc5cc(O)cc(c5)C(NC3=O)C(=O)NC4C(=O)NC3C(=O)NC2C(=O)NC(C(=O)OCCCCCl)c2cc(O)cc(O)c2-c2cc3ccc2O)O[C@H](CO)[C@@H](O)[C@@H]1O.Cl` (some centres unmarked) [Example 5, antibiotic L 17046 4-chlorobutyl ester, hydrochloride], the MIC in data set [1] (S. aureus TOUR (10^3 CFU/ml)) stood at 0.125 µg/mL; in data set [1] (S. aureus TOUR (10^6 CFU/ml)), 0.125 µg/mL; in data set [1] (setting [9]), 0.5 µg/mL; in data set [3] it was 128 µg/mL; in data set [4] it was 0.25 µg/mL; in data set [5], 0.125 µg/mL. In addition, the minimal inhibitory concentration (MIC) in data set [6] is 0.064 µg/mL; in data set [7], 0.25 µg/mL; in data set [8] it was 0.25 µg/mL. The compound also had a pKa in data set [2] of 6.66.
With `CC(=O)N[C@H]1[C@H](OC2c3ccc(c(Cl)c3)Oc3cc4cc(c3O)Oc3ccc(cc3Cl)CC3NC(=O)C(N)c5ccc(O)c(c5)Oc5cc(O)cc(c5)C(NC3=O)C(=O)NC4C(=O)NC3C(=O)NC2C(=O)NC(C(=O)OCc2ccccc2)c2cc(O)cc(O)c2-c2cc3ccc2O)O[C@H](CO)[C@@H](O)[C@@H]1O.O=C(O)C(F)(F)F` (some centres unmarked) [Example 8, antibiotic L 17046 benzyl ester trifluoroacetate], the MIC turned out to be 0.125 µg/mL in data set [1] (S. aureus TOUR (10^3 CFU/ml)); 0.125 µg/mL in data set [1] (S. aureus TOUR (10^6 CFU/ml)); 4 µg/mL in data set [1] (setting [9]); 64 µg/mL in data set [3]; 0.125 µg/mL in data set [4]; 0.25 µg/mL in data set [5]. For the same compound, the MIC in data set [6] stood at 0.063 µg/mL; in data set [8], 0.125 µg/mL.
Consider `CC(=O)N[C@H]1[C@H](OC2c3ccc(c(Cl)c3)Oc3cc4cc(c3O)Oc3ccc(cc3Cl)CC3NC(=O)C(N)c5ccc(O)c(c5)Oc5cc(O)cc(c5)C(NC3=O)C(=O)NC4C(=O)NC3C(=O)NC2C(=O)NC(C(=O)OCc2ccc(C)cc2)c2cc(O)cc(O)c2-c2cc3ccc2O)O[C@H](CO)[C@@H](O)[C@@H]1O` (some centres unmarked) [Example 10, antibiotic L 17046 (4-methyl)-benzyl ester], for which the minimum inhibitory concentration (MIC) in data set [1] (S. aureus TOUR (10^3 CFU/ml)) turned out to be 0.125 µg/mL (≈ 0.083 µM); in data set [1] (S. aureus TOUR (10^6 CFU/ml)) it was 0.25 µg/mL (≈ 0.166 µM); in data set [1] (setting [9]) it was 4 µg/mL; in data set [3] it was 64 µg/mL (≈ 42.5 µM); in data set [4], 0.125 µg/mL (≈ 0.083 µM); in data set [5], 0.5 µg/mL (≈ 0.332 µM). Moreover, the results for the MIC in data set [6] and in data set [8] were 0.063 µg/mL (≈ 0.0418 µM) and 0.25 µg/mL (≈ 0.166 µM), respectively.
For `CC(=O)N[C@H]1[C@H](OC2c3ccc(c(Cl)c3)Oc3cc4cc(c3O)Oc3ccc(cc3Cl)CC3NC(=O)C(N)c5ccc(O)c(c5)Oc5cc(O)cc(c5)C(NC3=O)C(=O)NC4C(=O)NC3C(=O)NC2C(=O)NC(C(=O)OCCO)c2cc(O)cc(O)c2-c2cc3ccc2O)O[C@H](CO)[C@@H](O)[C@@H]1O.O=C(O)C(F)(F)F` (some centres unmarked) [Example 12, antibiotic L 17046 (2-hydroxy)ethyl ester trifluroacetate], the MIC in data set [1] (S. aureus TOUR (10^3 CFU/ml)) was determined as 0.125 µg/mL; in data set [1] (S. aureus TOUR (10^6 CFU/ml)) it was 0.125 µg/mL; in data set [1] (setting [9]), 0.5 µg/mL; in data set [3], 128 µg/mL; in data set [4], 0.25 µg/mL; in data set [5] it was 1 µg/mL. Moreover, the MIC in data set [6] was found to be 0.063 µg/mL; in data set [8], 0.25 µg/mL.
